A word on the IC50: it is the midpoint of a concentration-inhibition curve. Broadly, the Cmax is the highest concentration seen after dosing. A word on the Tmax: it is the time at which the peak concentration occurs. One may read the half-life as the time in which the quantity being followed falls by half. Low readings indicate rapid decline, high ones slow decline.

Results on two compounds are retold here after patent US11767313B2, “Compounds as nuclear transport modulators and uses thereof” (XWPHARMA LTD., priority 2018, dated 2023).

The nature of one data set: in vivo. The note with it: female, mouse.
In a further data set the test system is U87MG-luc tumor. Description: U87MG-luc human glioblastoma orthotopic model. The note with it: 20 mg/kg orally, 3 times/week, 4 weeks. The class given is in vivo. From the text:
Animals: Female BALB/c Nude mice (Supplied by Beijing AniKeeper Biotech Co., Ltd., 6-8 weeks old/18-22 g) were used. General procedures for animal care and using were in accordance with the standard operating procedures (SOPs) of Pharmaron, Inc.
Grouping and Treatments: Grouping and treatment were started on Day 7 post tumor cells inoculation. Mice were imaged to monitor the tumor growth, then mice were randomly assigned to respective groups using a computer-generated randomization procedure. All test articles were administered orally 20 mg/kg with 3 times/week, for 4 weeks post tumor implantations (n=12 per group).
Cell Culture: The Human glioblastoma U87-luc tumor cell line was maintained in vitro as monolayer culture and used for tumor inoculation
Tumor Inoculation and Randomization: 2.5×10^5 luciferase-expressing U87MG-luc tumor cells suspended in 2 μL MEM medium were injected into the right forebrain by positioning the needle at AP: 2.0 mm, ML: 0.5-1.0 mm, DV: 3.0 mm from bregma. The injection was slowly proceeding over a one-minute period. Upon completing injection, the needle was retained for another minute. Measurement Parameters: Tumor growth (monitored by image analysis), body weight and survival days were recorded.
Termination Criterion: Individual animal was humanely sacrificed by carbon dioxide when body weight loss >20% and animals could not get to adequate food or water.
Statistical Analysis: Data was recorded as means±standard error of the mean for all measurement parameters as study designed. All statistical tests were conducted by SPSS 17.0 statistical software, and the level of significance is set at p<0.05.

In a further data set the test system is Ki67. Description: PD effects by IHC in U87MG-luc orthotopic model, Ki67. In kind it is in vivo, mice. The note with it: orally three times a week for 2 weeks; vs vehicle control. As for the experimental part:
Based on the bioluminescent signal of tumor, mice were randomly assigned to respective groups using a computer-generated randomization procedure, which included vehicle and compound III-treated groups, respectively, with 5 animals per group. Compound III (20 mg/kg) was given orally 3 times a week (on Day 1, 3, 5) for 2 weeks. Animals for IHC study were euthanized at 6 hours after the last dose and perfused with normal saline followed by fixation with 4% paraformaldehyde. Entire brains containing tumors were collected and kept in fixative for 24 hours before proceeding for paraffin block.

In another data set the test system is A-172. In words: CellTiter-Glo cell viability assay, A-172. The class given is cell-based. The note with it: Homo sapiens, Table 6. As to the method: (§1) CellTiter-Glo® Luminescent Cell Viability assay (with Promega CellTiter 96® Luminescent CellTiter-Glo® kit) was used to study the proliferation inhibition by test compounds. Compounds were resuspended in DMSO to make a 25 mM stock suspension. Cells of cancer cell lines or normal tissues were seeded in 96-well plates at 1,500 to 5,000 cells/well overnight. Compounds were 2- or 3-fold diluted serially to obtain 10 concentrations. Then, the drugs were added to the cell wells by Bravo (Agilent) and incubated for 72 hours. The cells were lysed by adding CellTiter-Glo® Reagent (per manufacturer's instructions) and subsequently, the luminescence was read using EnVision® (PerkinElmer).
(§2) The percent of growth was calculated as follows. DMSO-treated cells were employed as vehicle control (High control, HC) and culture medium alone was employed as background (Low control, EC). % growth=100×(Lum sample−Lum EC)/(Lum HC−Lum EC). The ICso was calculated by concentration-response curve fitting using Graphpad Prism.
The inhibition activity of test compounds was determined in A-172, U87MG and 3T3-L1 cell lines.
A CellTiter-Glo® luminescent cell viability assay was performed s described in Example 1.

The conditions of data set [1]: mouse, in vivo, po.
The next data set deals with H460. In words: CellTiter-Glo cell proliferation assay, H460. In kind it is cell-based. The note with it: Homo sapiens, NCI-H460, 72 hours, Table 1, read-out: Growth inhibition (IC50). As for the experimental part:
as §1, §2
Hematological cancer cell lines tested included OCI-AML3, MV-4-11, KG-1, Kasumi-1, K562, THP-1; solid cancer cell lines tested included U87MG, U251, T98G, LN229, A172, H460, H2009, A549; normal cell lines tested included HCN2 and 3T3-L1. […] However, they were not toxic to in vitro cultured normal cells.
In general terms: In ATP-based viability assays light output follows the ATP content of the culture.

A short description of data set [2]: Pharmacokinetic profile in plasma. In kind it is in vivo. The note with it: P.O., mice. As to the method: Blood was collected from mice (n=3, or 5) to contribute to the total of 10 time points (pre-dose, 5 min, 15 min, 30 min, 1 hour, 2 hours, 4 hours, 8 hours, 12 hours and 24 hours). At the designated time points, animals were anaesthetized under isoflurane, and approximately 110 μL of blood per time point was collected via retro-orbital puncture into pre-cooled K2EDTA tubes. Blood samples were put on wet ice and centrifuged (2000 g, 5 min at 4° C.) to obtain plasma within 30 minutes of sample collection. All samples were stored frozen at approximately −80° C. until analysis. Prior to analysis, samples were mixed with internal standard in acetonitrile, vortexed, centrifuged, and supernatant was injected for analysis. Concentration of compounds in plasma was determined using LC-MS-MS instrumentation (API 4000, Triple Quadrupole LC/MS/MS Mass Spectrometer). AUC values were calculated using Phoenix Win Nonlin 6.3 software package, PO-Noncompartmental model 200 (extravascular input).

Consider `CC(C)(C)C(=O)NNC(=O)/C=C\n1cnc(-c2cc(C(F)(F)F)cc(S(F)(F)(F)(F)F)c2)n1` [Compound III, (Z)-3-(3-(3-(Pentafluorosulfanyl)-5-(trifluoromethyl)phenyl)-1H-1,2,4-triazol-1-yl)-N′-pivaloylacrylohydrazide], for which, in “in vivo”, the MTD was less than 25 mg/kg. Besides, in the data set with U87MG-luc tumor, the “bodyweight loss (individual animal)” value was “less than 10%”, the “medium survival time (MST)” value is 47 days and the tolerability result is “well tolerated by most animals”. In addition, the “reduction in bioluminescence signal compared with the vehicle control group” value with U87MG-luc tumor (end of treatment period) turned out to be 99%. Further, the “expression of Ki67 in tumors (IHC)” value with Ki67 was “significantly decreased”.

`O=C(/C=C\n1cnc(-c2cc(C(F)(F)F)cc(S(F)(F)(F)(F)F)c2)n1)NNc1cnccn1` [Compound I, (Z)-3-(3-(3-(pentafluorosulfanyl)-5-(trifluoromethyl)phenyl)-1H-1,2,4-triazol-1-yl)-N′-(pyrazin-2-yl)acrylohydrazide] displayed an IC50 in the data set on A-172 of 407 nM. The “survival in MTD study” value in data set [1] was “survived”. For the same compound, the IC50 in the data set with H460 is 294 nM. Further, the AUG0-inf in data set [2] is 10430 ng·h/mL. In data set [2] (mouse, po), the Cmax turned out to be 2550 ng/mL, the Tmax was found to be 0.75 h and the half-life was 4.72 h. Besides, the MRT inf in data set [2] (mouse, po, read-out: MRT0-inf) was 5.55 h. The MRT last in data set [2] (mouse, po, read-out: MRT0-last) stood at 4.51 h.
